Test system: IL-1β transcription
Assay: In vitro transcription by nuclear run-off assay, IL-1β
Assay type: cell-based, human
Conditions: THP-1 nuclei; 2 μM LPG 2 h, LPS 2 μg/ml 4 h
Method: Nuclei isolation. Procedures for isolating nuclei have been described in Ausubel, F. M. et al., Current Protocols in Molecular Biology 1(4.9):4.9.1-4.9.14 and 1(4.10):4.10.1-4.10.11 (1993), hereby incorporated by reference. THP-1 cells (5×10^7 cells) treated with medium or medium containing 2 μM LPG for 2 h were stimulated or not stimulated with 2 μg/ml LPS for 4 h, at 37° C. in 5% CO2. Cells were harvested by gentle scraping, washed twice with 5 ml ice cold PBS and centrifugation at 350×g for 5 min. After removal of supernatant, cells were gently loosen by 5 sec vortex and 4 ml NP-40 buffer was added by continuous vortex. The NP-40 buffer is composed of 10 mM Tris HCl (pH 7.4), 10 mM NaCl, 3 mM MgCl2, and 0.5% noridet P-40 (NP-40). The cell suspension was further vortexed at half maximal speed for 10 sec and placed on ice for 5 min. Cells were visually inspected to ascertain the separation of nuclei from cytophasmic material. Nuclei were wash once more with 4 ml NP-40 buffer by centrifugation at 350×g, 5 min. The pelleted nuclei were resuspended with 200 μl glycerol buffer and stored in liquid nitrogen until nuclear run-off assay. Glycerol buffer is composed of 50 mM Tris Hcl (pH 8.3), 40% (v/v) glycerol, 5 mM MgCl2, 0.1 mM ethylenediaminetetraacetic acid (EDTA).
In vitro transcription. […]

lipophosphoglycan [LPG]
inhibition of LPS induced IL-1β mRNA transcription: approximately 65%
